Here are results for 35 compounds from patent publication US9868720B2 (Genentech, Inc., priority 2013, dated 2018).

Chain of DLK kinase (N-terminally GST-tagged DLK, catalytic domain amino acid 1-520) (Q12852 1-520): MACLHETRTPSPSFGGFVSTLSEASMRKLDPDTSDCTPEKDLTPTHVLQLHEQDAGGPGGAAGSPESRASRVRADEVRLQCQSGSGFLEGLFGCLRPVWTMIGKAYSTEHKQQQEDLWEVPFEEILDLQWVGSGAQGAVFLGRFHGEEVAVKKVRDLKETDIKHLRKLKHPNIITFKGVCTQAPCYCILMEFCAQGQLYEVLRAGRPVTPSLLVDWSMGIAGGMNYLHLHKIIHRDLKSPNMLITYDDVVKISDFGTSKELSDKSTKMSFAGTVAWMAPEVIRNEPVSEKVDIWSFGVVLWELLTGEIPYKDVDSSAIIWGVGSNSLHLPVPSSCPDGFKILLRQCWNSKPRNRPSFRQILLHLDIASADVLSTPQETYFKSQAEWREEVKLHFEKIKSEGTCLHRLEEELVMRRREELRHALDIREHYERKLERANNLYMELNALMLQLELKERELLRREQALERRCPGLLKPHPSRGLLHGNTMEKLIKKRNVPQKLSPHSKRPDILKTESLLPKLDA

The experiment addresses DLK kinase (N-terminally GST-tagged DLK, catalytic domain amino acid 1-520) (Homo sapiens (Human), UniProt Q12852). The experiment in a line: DLK TR-FRET assay. Type of experiment: biochemical. The following applies: 30 μM ATP, MKK4 K131M substrate, read-out: DLK HTRF (Ki). The protocol: DLK TR-FRET assay: DLK kinase reactions (20 μL) containing 5 nM N-terminally GST-tagged DLK (catalytic domain amino acid 1-520) (Carna Bioscience), 40 nM N-terminally HIS-tagged MKK4 K131M substrate, and 30 μM ATP in kinase reaction buffer (50 mM HEPES, pH 7.5, 0.01% Triton X-100, 0.01% Bovine γ-Globulins, 2 mM DTT, 10 mM MgCl2 and 1 mM EGTA), and testing compound 1:3 serial diluted starting at 20 uM were incubated at ambient temperature for 60 minutes in 384 well OptiPlate (Perkin Elmer). To quench kinase reactions and detect phosphorylated MKK4, 15 μL of TR-FRET antibody mixture containing 2 nM anti-phosphorylated MKK4 labeled with Europium cryptate (Cisbio) and 23 nM anti-HIS labeled with D2 (Cisbio) in detection buffer (25 mM Tris pH 7.5, 100 mM NaCl, 100 mM EDTA, 0.01% Tween-20, and 200 mM KF) was added to the reaction mixture. The detection mixture was incubated for 3 hours at ambient temperature and the TR-FRET was detected with an EnVision multilabel plate reader (Perkin-Elmer) using the LANCE/DELFIA Dual Enh label from Perkin-Elmer (excitation filter: UV2 (TRF) 320 and emission filters: APC 665 and Europium 615).
On the technique in general: TR-FRET usually uses a lanthanide donor and a delayed reading to cut background.
One may read the Ki as a dissociation constant, usually derived from enzyme kinetics or from competition with a known ligand. Consider `Cc1nc(Nc2ccc(C(F)(F)F)cn2)cc(C2CCCN(C(=O)c3ccccc3)C2)n1` (centres unmarked), for which the Ki was 691 nM. For the compound `CCc1ccnc(Nc2cc(C3CCCN(C(=O)c4ccccc4)C3)nc(C)n2)c1` (centres unmarked), the inhibition constant (Ki) amounted to 195 nM. For the compound `Cc1nc(Nc2cc(C(F)(F)F)ccn2)cc(C2CCCN(C(=O)c3ccc(F)cc3Cl)C2)n1` (centres unmarked), the Ki came to 52.1 nM. Consider `Cc1ccc(Nc2cc(C3CCCN(C(=O)c4ccccc4)C3)nc(C)n2)nc1` (centres unmarked) [Example 5], for which the Ki came to 401 nM.

Turning to `COc1cc(C)ccc1C(=O)N1CCCC(c2cc(Nc3cc(C)ccn3)nc(C)n2)C1` (centres unmarked) [Example 7], the Ki is 20.7 nM. Regarding `Cc1nc(Nc2cc(C(N)=O)ccn2)cc(C2CCCN(C(=O)c3ccccc3)C2)n1` (centres unmarked) [Example 8], the Ki stood at 795 nM. For `CCOc1ccnc(Nc2cc(C3CCCN(C(=O)c4ccccc4)C3)nc(C)n2)c1` (centres unmarked) [Example 21, {3-[6-(4-Ethoxy-pyridin-2-ylamino)-2-methyl-pyrimidin-4-yl]-piperidin-1-yl}-phenyl-methanone], the inhibition constant Ki came to 60.7 nM. As to `Cc1nc(Nc2cc(C(F)(F)F)ccn2)cc(C2CCCN(C(=O)c3ccc(F)cc3)C2)n1` (centres unmarked) [Example 22, (4-Fluoro-phenyl)-{3-[2-methyl-6-(4-trifluoro-methyl-pyridin-2-ylamino)-pyrimidin-4-yl]-piperidin-1-yl}-methanone], the Ki is 43.6 nM. Take `Cc1ccnc(Nc2cc(C3CCNCC3)nc(N3CCCC3)n2)c1` [Example 24, (4-Methyl-pyridin-2-yl)-(6-piperidin-4-yl-2-pyrrolidin-1-yl-pyrimidin-4-yl)-amine]: the inhibition constant (Ki) turned out to be 20.5 nM. As to `Cc1ccnc(Nc2cc(C3CCN(C(=O)c4ccccc4)CC3)nc(N3CCCC3)n2)c1` [Example 25, {4-[6-(4-Methyl-pyridin-2-ylamino)-2-pyrrolidin-1-yl-pyrimidin-4-yl]-piperidin-1-yl}-phenyl-methanone], the Ki is 50 nM. Next, `Cc1ccnc(Nc2cc(C3CCCN(Cc4cn(C)nc4C)C3)nc(C)n2)c1` (centres unmarked) [Example 38, {6-[1-(1,3-Dimethyl-1H-pyrazol-4-ylmethyl)-piperidin-3-yl]-2-methyl-pyrimidin-4-yl}-(4-methyl-pyridin-2-yl)-amine]: above 2100 nM.

With `Cc1ccnc(Nc2cc(C3CCCN(Cc4cc(C)nn4C)C3)nc(C)n2)c1` (centres unmarked) [Example 40, {6-[1-(2,5-Dimethyl-2H-pyrazol-3-ylmethyl)-piperidin-3-yl]-2-methyl-pyrimidin-4-yl}-(4-methyl-pyridin-2-yl)-amine], the inhibition constant (Ki) amounted to 392 nM.

Turning to `CN(CCO)c1nc(Nc2cc(C(F)(F)F)ccn2)cc(C2CCNC2)n1` (centres unmarked) [Example 47, 2-{Methyl-[4-pyrrolidin-3-yl-6-(4-trifluoromethyl-pyridin-2-ylamino)-pyrimidin-2-yl]-amino}-ethanol], the inhibition constant (Ki) worked out at 12.6 nM. Regarding `Cc1ccnc(Nc2cc(C3CCCN(Cc4ccc5nccn5c4)C3)nc(C)n2)c1` (centres unmarked) [Example 49, [6-(1-Imidazo[1,2-a]pyridin-6-ylmethyl-piperidin-3-yl)-2-methyl-pyrimidin-4-yl]-(4-methyl-pyridin-2-yl)-amine], the Ki was 310 nM.

Take `Cc1ccnc(Nc2cc(C3CCCN(Cc4cn5ccccc5n4)C3)nc(C)n2)c1` (centres unmarked) [Example 51, [6-(1-Imidazo[1,2-a]pyridin-2-ylmethyl-piperidin-3-yl)-2-methyl-pyrimidin-4-yl]-(4-methyl-pyridin-2-yl)-amine]: the Ki was determined as 166 nM. As for `Cc1ccnc(Nc2cc(C3CCCN(Cc4ccccn4)C3)nc(C)n2)c1` (centres unmarked) [Example 56, (4-Methyl-pyridin-2-yl)-[2-methyl-6-(1-pyridin-2-ylmethyl-piperidin-3-yl)-pyrimidin-4-yl]-amine], the inhibition constant (Ki) was 293 nM. On to `CC1CCCN1c1nc(Nc2cc(C(F)(F)F)ccn2)cc(C2CCNCC2)n1` (centres unmarked) [Example 65, [2-(2-Methyl-pyrrolidin-1-yl)-6-piperidin-4-yl-pyrimidin-4-yl]-(4-tri-fluoromethyl-pyridin-2-yl)-amine], for which the Ki was 0.735 nM. Turning to `FC(F)(F)c1ccnc(Nc2cc(C3CCNC3)nc(N3CCCC3)n2)c1` (centres unmarked) [Example 66, (2-Pyrrolidin-1-yl-6-pyr-rolidin-3-yl-pyrimidin-4-yl)-(4-trifluoromethyl-pyridin-2-yl)-amine], the Ki stood at 4.8 nM.

On to `CC(=O)N1CCCC(c2cc(Nc3cc(C)ccn3)nc(N3CCC3)n2)C1` (centres unmarked) [Example 87, 1-{3-[2-Azetidin-1-yl-6-(4-methyl-pyridin-2-ylamino)-pyrimidin-4-yl]-piperidin-1-yl}-ethanone], for which the inhibitory constant (Ki) was determined as 262 nM. Next, `CC(=O)N1CCC(c2cc(Nc3cc(C)ccn3)nc(N3CCCC3)n2)C1` (centres unmarked) [Example 89, 1-{3-[6-(4-Methyl-pyridin-2-ylamino)-2-pyrrolidin-1-yl-pyrimidin-4-yl]-pyrrolidin-1-yl}-ethanone]: 59 nM. Turning to `CC(=O)N1CCC(c2cc(Nc3cc(C)ccn3)nc(N3CCCCC3)n2)C1` (centres unmarked) [Example 90, 1-{3-[6-(4-Methyl-pyridin-2-ylamino)-2-piperidin-1-yl-pyrimidin-4-yl]-pyrrolidin-1-yl}-ethanone], the Ki was determined as 104 nM.

With `FC1(F)CCCN(c2nc(Nc3cc(C(F)(F)F)ccn3)cc(C3CCNC3)n2)C1` (centres unmarked) [Example 96, [2-(3,3-Difluoro-piperidin-1-yl)-6-pyrrolidin-3-yl-pyrimidin-4-yl]-(4-tri-fluoromethyl-pyridin-2-yl)-amine], the inhibition constant (Ki) was 3.1 nM. On to `N#CC1(c2cc(Nc3cc(C(F)(F)F)ccn3)nc(N3CCC(F)(F)C3)n2)CCNCC1` [Example 105, 4-[2-(3,3-Difluoro-pyr-rolidin-1-yl)-6-(4-trifluoro-methyl-pyridin-2-ylamino)-pyrimidin-4-yl]-piperidine-4-carbonitrile], for which the Ki turned out to be 11.7 nM. Regarding `CC(=O)N1CCCC(c2cc(Nc3cc(C)ccn3)nc(-c3ccccc3)n2)C1` (centres unmarked) [Example 106, 1-{3-[6-(4-Methyl-pyridin-2-ylamino)-2-phenyl-pyrimidin-4-yl]-piperidin-1-yl}-ethanone], the inhibition constant (Ki) came to 30.7 nM. Take `C[C@@H]1CCCN1c1nc(Nc2cc(C(F)(F)F)ccn2)cc(C2CCNCC2)n1` [Example 111, [2-((R)-2-Methyl-pyrrolidin-1-yl)-6-piperidin-4-yl-pyrimidin-4-yl]-(4-trifluoromethyl-pyridin-2-yl)-amine]: the Ki was 0.85 nM. Regarding `C[C@H]1CCCN1c1nc(Nc2cc(C(F)(F)F)ccn2)cc(C2CCNCC2)n1` [Example 112, [2-((S)-2-Methyl-pyrrolidin-1-yl)-6-piperidin-4-yl-pyrimidin-4-yl]-(4-trifluoromethyl-pyridin-2-yl)-amine], the Ki worked out at 15.8 nM.

Turning to `FC1(F)CCN(c2nc(Nc3cc(Cl)ccn3)cc(C3CCNCC3)n2)C1` [Example 120, (4-Chloro-pyridin-2-yl)-[2-(3,3-difluoro-pyrrolidin-1-yl)-6-piperidin-4-yl-pyrimidin-4-yl]-amine], the Ki was found to be 8.55 nM. `COc1ccnc(Nc2cc(C3CCNCC3)nc(N3CCCC3C)n2)c1` (centres unmarked) [Example 125, (4-Methoxy-pyridin-2-yl)-[2-(2-methyl-pyrrolidin-1-yl)-6-piperidin-4-yl-pyrimidin-4-yl]-amine]: the inhibition constant (Ki) worked out at 15.2 nM. For `COc1ccnc(Nc2cc(C3CCN(C(C)=O)C3)nc(N3CCCC3C)n2)c1` (centres unmarked) [Example 129, 1-{3-[6-(4-Methoxy-pyridin-2-ylamino)-2-(2-methyl-pyrrolidin-1-yl)-pyrimidin-4-yl]-pyrrolidin-1-yl}-ethanone], the Ki was determined as 100 nM. In the case of `C[C@@H]1CC[C@@H](C)N1c1nc(Nc2cc(C(F)(F)F)ccn2)cc(C2CCNCC2)n1` [Example 143, [2-((2R,5R)-2,5-Dimethyl-pyrrolidin-1-yl)-6-piperidin-4-yl-pyrimidin-4-yl]-(4-trifluoromethyl-pyridin-2-yl)-amine], the Ki came out at 10.4 nM. As for `CC(C)c1nc(Nc2cc(C(F)(F)F)ccn2)cc(C2CCCN(C)C2)n1` (centres unmarked) [Example 145, [2-Isopropyl-6-(1-methyl-piperidin-3-yl)-pyrimidin-4-yl]-(4-trifluoro-methyl-pyridin-2-yl)-amine], the Ki was 141 nM. As for `CC(=O)N1CCC(C#N)(c2cc(Nc3cc(C(F)(F)F)ccn3)nc(N3CCC(F)(F)C3)n2)CC1` [Example 156, 1-Acetyl-4-[2-(3,3-difluoro-pyrrolidin-1-yl)-6-(4-trifluoromethyl-pyridin-2-ylamino)-pyrimidin-4-yl]-piperidine-4-carbonitrile], the Ki was found to be 26.9 nM. Consider `CN1CCC(c2cc(Nc3cc(C(F)(F)F)ccn3)nc(N3CCC(F)(F)C3)n2)CC1` [Example 160, [2-(3,3-Difluoro-pyrrolidin-1-yl)-6-(1-methyl-piperidin-4-yl)-pyrimidin-4-yl]-(4-trifluoromethyl-pyridin-2-yl)-amine], for which the Ki is 4.42 nM. As to `C[C@@H]1CCCN1c1nc(Nc2cc(C(F)(F)F)ccn2)cc(C2CCN(C)CC2)n1` [Example 169, [6-(1-Methyl-piperidin-4-yl)-2-((R)-2-methyl-pyrrolidin-1-yl)-pyrimidin-4-yl]-(4-trifluoromethyl-pyridin-2-yl)-amine], the inhibition constant (Ki) amounted to 0.4 nM.

As to `N#CCC(=O)N1CCCC(c2cc(Nc3cc(C(F)(F)F)ccn3)nc(C3CC3)n2)C1` (centres unmarked) [Example 173, 3-{3-[2-Cyclopropyl-6-(4-trifluoromethyl-pyridin-2-ylamino)-pyrimidin-4-yl]-piperidin-1-yl}-3-oxo-propionitrile], the inhibitory constant (Ki) is 37 nM.
